Results as given in publication PMC3565387 (Bioorganic & medicinal chemistry, 2012).
pEC50: −log10 of the molar value.

Key:
[1] = test system: human neutrophils; test: Ca2+ mobilization in human neutrophils; assay type: cell-based; settings: % of response induced by 5 nM fMLF
[2] = target: T1, FPR1 (Homo sapiens, UniProt P21462); test: Ca2+ mobilization in HL-60 cells transfected with FPR1; assay type: cell-based; settings: HL-60-FPR1 cells; % of response induced by 5 nM fMLF
T1 sequence (P21462 1-350): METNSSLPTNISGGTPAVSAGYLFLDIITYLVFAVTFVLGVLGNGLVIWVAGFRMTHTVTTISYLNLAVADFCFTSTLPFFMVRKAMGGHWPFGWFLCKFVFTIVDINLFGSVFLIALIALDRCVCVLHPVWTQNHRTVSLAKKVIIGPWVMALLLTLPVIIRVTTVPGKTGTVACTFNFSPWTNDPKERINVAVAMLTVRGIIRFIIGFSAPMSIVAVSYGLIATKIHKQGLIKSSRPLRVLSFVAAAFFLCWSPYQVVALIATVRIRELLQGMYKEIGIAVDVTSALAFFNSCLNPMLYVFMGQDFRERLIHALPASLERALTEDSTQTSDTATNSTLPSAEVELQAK

[3] = target: T2, FPR2 (Homo sapiens, UniProt P25090); test: Ca2+ mobilization in HL-60 cells transfected with FPR2; assay type: cell-based; settings: HL-60-FPR2 cells; % of response induced by 5 nM WKYMVm
T2 sequence (P25090 1-351): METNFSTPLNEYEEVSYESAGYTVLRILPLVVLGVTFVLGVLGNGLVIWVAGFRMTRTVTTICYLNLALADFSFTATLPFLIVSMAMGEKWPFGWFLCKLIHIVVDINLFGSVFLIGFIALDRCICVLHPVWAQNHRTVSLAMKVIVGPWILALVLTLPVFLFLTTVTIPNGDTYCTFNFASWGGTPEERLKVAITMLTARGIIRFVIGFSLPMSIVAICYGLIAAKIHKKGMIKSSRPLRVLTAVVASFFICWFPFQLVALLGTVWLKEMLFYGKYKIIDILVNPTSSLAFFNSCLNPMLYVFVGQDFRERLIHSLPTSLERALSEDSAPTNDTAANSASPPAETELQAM

[4] = test system: FPR2/ALX; settings: read-out: EC50 at FPR2/ALX; endogenous ligand; cited from earlier work
[5] = target: T1, FPR1; test: PathHunter β-arrestin recruitment in CHO-K1 FPR1 cells; assay type: cell-based; settings: % of response induced by 5 nM WKYMVm
[6] = target: T2, FPR2; test: PathHunter β-arrestin recruitment in CHO-K1 FPR2 cells; assay type: cell-based

**Q.** For `CCC(C(=O)Nc1ccc(Br)cc1)n1nc(C)cc(Cc2cccc(OC)c2)c1=O` (racemic) [(±)-5b, (±)-N-(4-Bromophenyl)-2-[5-(3-methoxybenzyl)-3-methyl-6-oxopyridazin-1(6H)-yl]butanamide], which “Ca2+ mobilization hPMN efficacy” value [1] is on record?
**A.** Its value is 145%.

**Q.** What about the “Ca2+ mobilization FPR1 efficacy” value [2] of the same compound?
**A.** The value was 95%.

**Q.** And the “Ca2+ mobilization FPR2 efficacy” value [3]?
**A.** The value was 95%.

**Q.** With `CCCCC[C@H](O)/C=C/C=C\C=C\C=C\[C@@H](O)[C@@H](O)CCCC(=O)O` [LXA4, lipoxin A4] as the compound, how does the pEC50 [4] read?
**A.** The pEC50 was 9.00.

**Q.** Which “Ca2+ mobilization hPMN efficacy” value [1] does the source give for `COc1cccc(Cc2cc(C)nn([C@H](C)C(=O)Nc3ccc(Br)cc3)c2=O)c1` [R-(−)-5a, R-(−)-N-(4-Bromophenyl)-2-[5-(3-methoxybenzyl)-3-methyl-6-oxopyridazin-1(6H)-yl]propanamide] here?
**A.** The value was 110%.

**Q.** Which results are given for `CCC[C@H](C(=O)Nc1ccc(Br)cc1)n1nc(C)cc(Cc2cccc(OC)c2)c1=O` [R-(−)-5c, R-(−)-N-(4-Bromophenyl)-2-[5-(3-methoxybenzyl)-3-methyl-6-oxopyridazin-1(6H)-yl]pentanamide]?
**A.** Ca2+ mobilization hPMN efficacy [1]: 145%; Ca2+ mobilization FPR1 efficacy [2]: 85%; Ca2+ mobilization FPR2 efficacy [3]: 120%; β-Arrestin recruitment FPR1 efficacy [5]: 120%; β-Arrestin recruitment FPR2 efficacy ([6]; CHO-K1 FPR2 cells, % of response induced by 5 nM WKYMVm): 100%

**Q.** For `COc1cccc(Cc2cc(C)nn([C@@H](C)C(=O)Nc3ccc(Br)cc3)c2=O)c1` [S-(+)-5a, S-(+)-N-(4-Bromophenyl)-2-[5-(3-methoxybenzyl)-3-methyl-6-oxopyridazin-1(6H)-yl]propanamide], which “Ca2+ mobilization hPMN efficacy” value [1] is on record?
**A.** Its value is 65%.

**Q.** Which “β-Arrestin recruitment FPR2 (in words)” value ([6]; FPR2 CHO-K1 cells) does the source give for `CSCC[C@H](NC=O)C(=O)N[C@@H](CC(C)C)C(=O)N[C@@H](Cc1ccccc1)C(=O)O` [fMLF, N-formyl-methionine-leucine-phenylalanine, reference compound] here?
**A.** Its value is “no recruitment”.
